# Key:
# MOOVA (Monochoria) = assay: Preemergence weed control under flooded paddy conditions; assay type: in vivo, Monochoria vaginalis; settings: rated 3-4 weeks after treatment
# In short: (§1)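 Values are visual 0-9 scores against a control for a preemergence application into paddy flood water at about 0.0313 to 0.500 kg/ha. Greenhouse duration was three to four weeks.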
# [1] = tested on: IPOHE (Morningglory, Ivyleaf); assay: Postemergence herbicidal evaluation; assay type: in vivo, Ipomoea hederacea; settings: postemergence
# In short: (§2)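 Scores (0–9) reflect plant stand, vigor, malformation, size, chlorosis and general appearance relative to control, read 4 to 5 weeks after treatment and averaged where tests were repeated. Application: about 0.0156–0.500 kg/ha sprayed at 40 psi onto two-week seedlings.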
# ABUTH (Velvetleaf) = assay: Preemergence herbicidal evaluation; assay type: in vivo, Abutilon theophrasti; settings: rated 4-5 weeks after treatment
# In short: (§3)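 Greenhouse preemergence test: seed-soil mix sown on ~1 inch soil; aqueous acetone spray at equivalent of ~0.0156–0.500 kg/ha; greenhouse-held and watered; scored 0–9 visually at 4–5 weeks.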
# ORYSAT (Rice, Tebonnet) = assay: Preemergence herbicidal evaluation; assay type: in vivo, Oryza sativa, (L.) Tebonnet; settings: rated 4-5 weeks after treatment
# In short: as §3
# [2] = tested on: TRZAWR (Wheat, Winter, cv Riband); assay: Postemergence herbicidal evaluation; assay type: in vivo, Triticum aestivum; settings: postemergence
# In short: as §2
# ECHCG (Barnyardgrass) = assay: Postemergence herbicidal evaluation; assay type: in vivo, Echinochloa crus-galli; settings: postemergence
# In short: as §2
# AMBEL (Ragweed, Common) [3] = assay: Postemergence herbicidal evaluation; assay type: in vivo, Ambrosia artemisifolia; settings: postemergence
# In short: as §2
# [4] = tested on: GLXMAW (Soybean, Williams); assay: Preemergence herbicidal evaluation; assay type: in vivo, Glycine max, (L.) Merr. cv Williams; settings: rated 4-5 weeks after treatment
# In short: as §3
# AMBEL (Ragweed, Common) [5] = assay: Preemergence herbicidal evaluation; assay type: in vivo, Ambrosia artemisifolia; settings: rated 4-5 weeks after treatment
# In short: as §3
# [6] = tested on: CHEAL (Lambsquarters, Common); assay: Preemergence herbicidal evaluation; assay type: in vivo, Chenopodium album; settings: rated 4-5 weeks after treatment
# In short: as §3
# [7] = tested on: GLXMAW (Soybean, Williams); assay: Postemergence herbicidal evaluation; assay type: in vivo, Glycine max, (L.) Merr. cv Williams; settings: postemergence
# In short: as §2
# [8] = tested on: SAGPY (Arrowhead (Pygmaea)); assay: Preemergence weed control under flooded paddy conditions; assay type: in vivo, Sagittaria pygmaea; settings: rated 3-4 weeks after treatment
# In short: as §1
# CASOB (Sicklepod) [9] = assay: Preemergence herbicidal evaluation; assay type: in vivo, Cassia obtusifolia; settings: rated 4-5 weeks after treatment
# In short: as §3
# [10] = tested on: CHEAL (Lambsquarters, Common); assay: Postemergence herbicidal evaluation; assay type: in vivo, Chenopodium album; settings: postemergence
# In short: as §2
# [11] = tested on: IPOHE (Morningglory, Ivyleaf); assay: Preemergence herbicidal evaluation; assay type: in vivo, Ipomoea hederacea; settings: rated 4-5 weeks after treatment
# In short: as §3
# CASOB (Sicklepod) [12] = assay: Postemergence herbicidal evaluation; assay type: in vivo, Cassia obtusifolia; settings: postemergence
# In short: as §2
smiles,measurement,setting,value
"CCOC(=O)CN1C(=O)C(Cl)SC1=Nc1cc(-n2c(=O)cc(C(F)(F)F)n(C)c2=O)c(F)cc1Cl (stereo not shown) [Compound 126, Ethyl 5-chloro-2-{{2-chloro-5-[3,6-dihydro-3-methyl-2,6-dioxo-4-(trifluoromethyl)-1(2H)-pyrimidinyl]-4-fluorophenyl}imino}-4-oxo-3-thiazolidineacetate]","herbicidal effect rating, MOOVA",MOOVA (Monochoria); 0.0313 kg/ha,3.0
same,"herbicidal effect rating, MOOVA",MOOVA (Monochoria); 0.0625 kg/ha,4.0
same,"herbicidal effect rating, MOOVA",MOOVA (Monochoria); 0.1250 kg/ha,6.0
same,"herbicidal effect rating, MOOVA",MOOVA (Monochoria); 0.2500 kg/ha,7.0
same,herbicidal rating IPOHE,[1]; rate 0.0156 kg/ha,9.0
same,herbicidal rating IPOHE,[1]; rate 0.0313 kg/ha,9.0
same,herbicidal rating IPOHE,[1]; rate 0.0625 kg/ha,9.0
same,herbicidal rating IPOHE,[1]; rate 0.1250 kg/ha,9.0
same,Preemergence herbicidal rating ABUTH,ABUTH (Velvetleaf); rate 0.0625 kg/ha,5.0
same,Preemergence herbicidal rating ABUTH,ABUTH (Velvetleaf); rate 0.1250 kg/ha,5.0
same,Preemergence herbicidal rating ABUTH,ABUTH (Velvetleaf); rate 0.2500 kg/ha,9.0
same,Preemergence herbicidal rating ABUTH,ABUTH (Velvetleaf); rate 0.5000 kg/ha,9.0
same,Preemergence herbicidal rating ORYSAT,"ORYSAT (Rice, Tebonnet); rate 0.0625 kg/ha",0.0
same,Preemergence herbicidal rating ORYSAT,"ORYSAT (Rice, Tebonnet); rate 0.1250 kg/ha",0.0
same,Preemergence herbicidal rating ORYSAT,"ORYSAT (Rice, Tebonnet); rate 0.2500 kg/ha",0.0
same,Preemergence herbicidal rating ORYSAT,"ORYSAT (Rice, Tebonnet); rate 0.5000 kg/ha",3.0
same,herbicidal rating TRZAWR,[2]; rate 0.0156 kg/ha,2.0
same,herbicidal rating TRZAWR,[2]; rate 0.0313 kg/ha,2.5
same,herbicidal rating TRZAWR,[2]; rate 0.0625 kg/ha,3.0
same,herbicidal rating TRZAWR,[2]; rate 0.1250 kg/ha,3.5
same,herbicidal rating ECHCG,ECHCG (Barnyardgrass); rate 0.0156 kg/ha,0.0
same,herbicidal rating ECHCG,ECHCG (Barnyardgrass); rate 0.0313 kg/ha,0.0
same,herbicidal rating ECHCG,ECHCG (Barnyardgrass); rate 0.0625 kg/ha,0.0
same,herbicidal rating ECHCG,ECHCG (Barnyardgrass); rate 0.1250 kg/ha,0.0
same,herbicidal rating AMBEL,"AMBEL (Ragweed, Common) [3]; rate 0.0156 kg/ha",5.0
same,herbicidal rating AMBEL,"AMBEL (Ragweed, Common) [3]; rate 0.0313 kg/ha",9.0
same,herbicidal rating AMBEL,"AMBEL (Ragweed, Common) [3]; rate 0.0625 kg/ha",9.0
same,herbicidal rating AMBEL,"AMBEL (Ragweed, Common) [3]; rate 0.1250 kg/ha",9.0
same,Preemergence herbicidal rating GLXMAW,[4]; rate 0.0625 kg/ha,0.0
same,Preemergence herbicidal rating GLXMAW,[4]; rate 0.1250 kg/ha,2.0
same,Preemergence herbicidal rating GLXMAW,[4]; rate 0.2500 kg/ha,3.0
same,Preemergence herbicidal rating GLXMAW,[4]; rate 0.5000 kg/ha,7.0
same,Preemergence herbicidal rating AMBEL,"AMBEL (Ragweed, Common) [5]; rate 0.0625 kg/ha",0.0
same,Preemergence herbicidal rating AMBEL,"AMBEL (Ragweed, Common) [5]; rate 0.1250 kg/ha",0.0
same,Preemergence herbicidal rating AMBEL,"AMBEL (Ragweed, Common) [5]; rate 0.2500 kg/ha",4.0
same,Preemergence herbicidal rating AMBEL,"AMBEL (Ragweed, Common) [5]; rate 0.5000 kg/ha",5.0
same,Preemergence herbicidal rating CHEAL,[6]; rate 0.0625 kg/ha,9.0
same,Preemergence herbicidal rating CHEAL,[6]; rate 0.1250 kg/ha,9.0
same,Preemergence herbicidal rating CHEAL,[6]; rate 0.2500 kg/ha,9.0
same,Preemergence herbicidal rating CHEAL,[6]; rate 0.5000 kg/ha,9.0
same,herbicidal rating GLXMAW,[7]; rate 0.0156 kg/ha,5.0
same,herbicidal rating GLXMAW,[7]; rate 0.0313 kg/ha,5.5
same,herbicidal rating GLXMAW,[7]; rate 0.0625 kg/ha,6.0
same,herbicidal rating GLXMAW,[7]; rate 0.1250 kg/ha,7.0
same,"herbicidal effect rating, SAGPY",[8]; 0.0313 kg/ha,0.0
same,"herbicidal effect rating, SAGPY",[8]; 0.0625 kg/ha,0.0
same,"herbicidal effect rating, SAGPY",[8]; 0.1250 kg/ha,3.0
same,"herbicidal effect rating, SAGPY",[8]; 0.2500 kg/ha,3.0
same,Preemergence herbicidal rating CASOB,CASOB (Sicklepod) [9]; rate 0.0625 kg/ha,0.0
same,Preemergence herbicidal rating CASOB,CASOB (Sicklepod) [9]; rate 0.1250 kg/ha,0.0
same,Preemergence herbicidal rating CASOB,CASOB (Sicklepod) [9]; rate 0.2500 kg/ha,0.0
same,Preemergence herbicidal rating CASOB,CASOB (Sicklepod) [9]; rate 0.5000 kg/ha,3.0
same,herbicidal rating CHEAL,[10]; rate 0.0156 kg/ha,4.0
same,herbicidal rating CHEAL,[10]; rate 0.0313 kg/ha,4.0
same,herbicidal rating CHEAL,[10]; rate 0.0625 kg/ha,4.0
same,herbicidal rating CHEAL,[10]; rate 0.1250 kg/ha,9.0
same,Preemergence herbicidal rating IPOHE,[11]; rate 0.0625 kg/ha,0.0
same,Preemergence herbicidal rating IPOHE,[11]; rate 0.1250 kg/ha,1.0
same,Preemergence herbicidal rating IPOHE,[11]; rate 0.2500 kg/ha,1.0
same,Preemergence herbicidal rating IPOHE,[11]; rate 0.5000 kg/ha,9.0
same,herbicidal rating CASOB,CASOB (Sicklepod) [12]; rate 0.0156 kg/ha,0.0
same,herbicidal rating CASOB,CASOB (Sicklepod) [12]; rate 0.0313 kg/ha,0.0
same,herbicidal rating CASOB,CASOB (Sicklepod) [12]; rate 0.0625 kg/ha,2.0
same,herbicidal rating CASOB,CASOB (Sicklepod) [12]; rate 0.1250 kg/ha,4.0

# — patent publication US20020137929A1, “1 - (3-heterocyclylphenyl) isothiourea, -isourea, -guanidine and -amidine herbicidal agents” (Intellectual Property Department, BASF Aktiengesellschaft, priority 1998, published 2002)
